Source: patent US20250172566A1, “SACCHARIDE SENSING SYSTEMS” (CARBOMETRICS LIMITED, priority 2022, published 2025)

Assay: Fluorescent solution phase glucose responsive assay (pH 7.4, 298 K)
Conditions: medium B, Ex 470 nm, Emmax 520 nm
Protocol: Fluorescence spectroscopy was performed on either a HORIBA Duetta or BMG Labtech CLARIOstar plus plate reader. Emission spectra were obtained using the appropriate excitation wavelength and at a temperature of either 298 or 310 K and at pH 7.4 unless otherwise stated. Data collection and analysis were performed using EzSpec software by HORIBA or CLARIOstar MARS software by BMG Labtech. Further analysis and processing were performed in Microsoft Excel.
A solution of GBM and FIM at the required concentrations were created in the appropriate media. The emission spectrum of the assay was then acquired by exciting at the designated excitation wavelength to obtain the baseline emission intensity for the assay. Aliquots of 2 M D-glucose (in the same media) were then added to give the required final glucose concentrations (e.g. 15 μL of 2 M D-glucose in 3 mL gives a final D-glucose concentration of 10 mM) and the assay allowed to reach equilibration. The emission spectra were collected after each addition of D-glucose and compared to the original baseline emission, monitoring at the typical emission maximum (Emmax), and the percentage increase or decrease recorded. Emission spectra acquired on either a Horiba Duetta fluorometer or Clariostar plus plate reader.
The glucose responsive fluorescence emission for different combinations of glucose binding molecules (GBM) and fluorescent inhibitor molecules (FIM) at various concentrations and in various media was tested as described above. All results obtained at pH 7.4 and 298 K unless otherwise stated.
All results obtained at pH 7.4 and 298 K unless otherwise stated.
Table 4 provides the composition of the assay media used as the code assigned to each media as used in Tables 1 to 3.

CC(C)(C)OC(=O)N[C@@H](Cc1cn(CCCC[C@@H](C(=O)Nc2ccc(CCO[C@@H]3O[C@H](CO)[C@@H](O)[C@H](O)[C@H]3O)cc2)[N+](C)(C)C)nn1)C(=O)NCCOCCOCCOCCn1cc(CNC(=O)c2ccc3c(c2)C(=O)OC32c3ccc(O)cc3Oc3cc(O)ccc32)nn1 [FIM32]
Change in Emmax for FIM at a particular D-glucose concentration (5 mM D-glucose, GBM15 10 μM, FIM 1 μM): 170% | Change in Emmax for FIM at a particular D-glucose concentration (5 mM D-glucose, GBM15 50 μM, FIM 0.5 μM): 140% | Change in Emmax for FIM at a particular D-glucose concentration (5 mM D-glucose, GBM15 50 μM, FIM 5 μM): 110% | Change in Emmax for FIM at a particular D-glucose concentration (5 mM D-glucose, GBM15 50 μM, FIM 10 μM): 110% | Change in Emmax for FIM at a particular D-glucose concentration (5 mM D-glucose, GBM15 100 μM, FIM 1 μM): 95% | Change in Emmax for FIM at a particular D-glucose concentration (5 mM D-glucose, GBM15 200 μM, FIM 2 μM): 85% | Change in Emmax for FIM at a particular D-glucose concentration (5 mM D-glucose, GBM15 200 μM, FIM 5 μM): 50% | Change in Emmax for FIM at a particular D-glucose concentration (5 mM D-glucose, GBM15 200 μM, FIM 10 μM): 50% | Change in Emmax for FIM at a particular D-glucose concentration (10 mM D-glucose, GBM15 10 μM, FIM 1 μM): 190% | Change in Emmax for FIM at a particular D-glucose concentration (10 mM D-glucose, GBM15 50 μM, FIM 0.5 μM): 195% | Change in Emmax for FIM at a particular D-glucose concentration (10 mM D-glucose, GBM15 50 μM, FIM 5 μM): 155% | Change in Emmax for FIM at a particular D-glucose concentration (10 mM D-glucose, GBM15 50 μM, FIM 10 μM): 145% | Change in Emmax for FIM at a particular D-glucose concentration (10 mM D-glucose, GBM15 100 μM, FIM 1 μM): 135% | Change in Emmax for FIM at a particular D-glucose concentration (10 mM D-glucose, GBM15 200 μM, FIM 2 μM): 115% | Change in Emmax for FIM at a particular D-glucose concentration (10 mM D-glucose, GBM15 200 μM, FIM 5 μM): 85% | Change in Emmax for FIM at a particular D-glucose concentration (10 mM D-glucose, GBM15 200 μM, FIM 10 μM): 85% | Change in Emmax for FIM at a particular D-glucose concentration (20 mM D-glucose, GBM15 10 μM, FIM 1 μM): 200% | Change in Emmax for FIM at a particular D-glucose concentration (20 mM D-glucose, GBM15 50 μM, FIM 0.5 μM): 240% | Change in Emmax for FIM at a particular D-glucose concentration (20 mM D-glucose, GBM15 50 μM, FIM 5 μM): 185% | Change in Emmax for FIM at a particular D-glucose concentration (20 mM D-glucose, GBM15 50 μM, FIM 10 μM): 190% | Change in Emmax for FIM at a particular D-glucose concentration (20 mM D-glucose, GBM15 100 μM, FIM 1 μM): 160% | Change in Emmax for FIM at a particular D-glucose concentration (20 mM D-glucose, GBM15 200 μM, FIM 2 μM): 145% | Change in Emmax for FIM at a particular D-glucose concentration (20 mM D-glucose, GBM15 200 μM, FIM 5 μM): 125% | Change in Emmax for FIM at a particular D-glucose concentration (20 mM D-glucose, GBM15 200 μM, FIM 10 μM): 115% | Change in Emmax for FIM at a particular D-glucose concentration (40 mM D-glucose, GBM15 10 μM, FIM 1 μM): 220% | Change in Emmax for FIM at a particular D-glucose concentration (40 mM D-glucose, GBM15 50 μM, FIM 0.5 μM): 265% | Change in Emmax for FIM at a particular D-glucose concentration (40 mM D-glucose, GBM15 50 μM, FIM 5 μM): 205% | Change in Emmax for FIM at a particular D-glucose concentration (40 mM D-glucose, GBM15 100 μM, FIM 1 μM): 220% | Change in Emmax for FIM at a particular D-glucose concentration (40 mM D-glucose, GBM15 200 μM, FIM 2 μM): 200% | Change in Emmax for FIM at a particular D-glucose concentration (40 mM D-glucose, GBM15 200 μM, FIM 5 μM): 175% | Change in Emmax for FIM at a particular D-glucose concentration (40 mM D-glucose, GBM15 200 μM, FIM 10 μM): 130% | Change in Emmax for FIM at a particular D-glucose concentration (60 mM D-glucose, GBM15 50 μM, FIM 0.5 μM): 310% | Change in Emmax for FIM at a particular D-glucose concentration (60 mM D-glucose, GBM15 50 μM, FIM 5 μM): 225% | Change in Emmax for FIM at a particular D-glucose concentration (60 mM D-glucose, GBM15 200 μM, FIM 2 μM): 215% | Change in Emmax for FIM at a particular D-glucose concentration (60 mM D-glucose, GBM15 200 μM, FIM 5 μM): 190% | Change in Emmax for FIM at a particular D-glucose concentration (60 mM D-glucose, GBM15 200 μM, FIM 10 μM): 160% | Change in Emmax for FIM at a particular D-glucose concentration (80 mM D-glucose, GBM15 50 μM, FIM 5 μM): 235% | Change in Emmax for FIM at a particular D-glucose concentration (80 mM D-glucose, GBM15 200 μM, FIM 5 μM): 200% | Change in Emmax for FIM at a particular D-glucose concentration (80 mM D-glucose, GBM15 200 μM, FIM 10 μM): 170%

O=C(CNC(=O)[C@H](Cc1cn(CCOCCOCCOCCOc2ccc(CCO[C@@H]3O[C@H](CO)[C@@H](O)[C@H](O)[C@H]3O)cc2)nn1)NC(=O)CCCC[C@@H]1SC[C@@H]2NCN[C@@H]21)Nc1ccc2c(c1)C(=O)OC21c2ccc(O)cc2Oc2cc(O)ccc21 [FIM35]
Change in Emmax for FIM at a particular D-glucose concentration (20 mM D-glucose, GBM29 50 μM, FIM 1 μM): 60% | Change in Emmax for FIM at a particular D-glucose concentration (20 mM D-glucose, GBM29 50 μM, FIM 1 μM, separate GBM and FIM components mixed with 0.25 molar equivalents of streptavidin tetramer prior to formulation of assay): 40%

C[N+](C)(C)[C@@H](CCCCNC(=O)[C@@H](N)CCCCn1cc(CNC(=O)c2ccc3c(c2)C2(OC3=O)c3ccc(N)c(S(=O)(=O)O)c3Oc3c2ccc(N)c3S(=O)(=O)O)nn1)C(=O)Nc1ccc(CCO[C@@H]2O[C@H](CO)[C@@H](O)[C@H](O)[C@H]2O)cc1 [FIM39]
Change in Emmax for FIM at a particular D-glucose concentration (5 mM D-glucose, GBM7 30 μM, FIM 1 μM): 95% | Change in Emmax for FIM at a particular D-glucose concentration (10 mM D-glucose, GBM7 30 μM, FIM 1 μM): 115% | Change in Emmax for FIM at a particular D-glucose concentration (20 mM D-glucose, GBM7 30 μM, FIM 1 μM): 120%

CC(C)(C)OC(=O)N[C@@H](Cc1cn(CCCC[C@@H](C(=O)NCC(CO[C@@H]2O[C@H](CO)[C@@H](O)[C@H](O)[C@H]2O)c2ccccc2)[N+](C)(C)C)nn1)C(=O)NCCOCCOCCn1cc(CNC(=O)c2ccc3c(c2)C(=O)OC32c3ccc(N)c(S(=O)(=O)[O-])c3Oc3c2ccc(N)c3S(=O)(=O)O)nn1 (some centres unmarked) [FIM50]
Change in Emmax for FIM at a particular D-glucose concentration (5 mM D-glucose, GBM7 50 μM, FIM 2 μM): 140% | Change in Emmax for FIM at a particular D-glucose concentration (5 mM D-glucose, GBM15 100 μM, FIM 2 μM): 50% | Change in Emmax for FIM at a particular D-glucose concentration (10 mM D-glucose, GBM7 50 μM, FIM 2 μM): 180% | Change in Emmax for FIM at a particular D-glucose concentration (10 mM D-glucose, GBM15 100 μM, FIM 2 μM): 70% | Change in Emmax for FIM at a particular D-glucose concentration (20 mM D-glucose, GBM7 50 μM, FIM 2 μM): 200% | Change in Emmax for FIM at a particular D-glucose concentration (20 mM D-glucose, GBM15 100 μM, FIM 2 μM): 90%
